# In a melting point compilation (Tetko et al.; mined from patent text by program, amines drawn as free bases though some values may be those of a salt):
row,melting point,SMILES
1,159 to 160 °C,Cc1nnc(-c2ccc3occ(-c4ccccc4C(F)(F)F)c3c2)o1
2,208 to 210 °C,CS(=O)(=O)Nc1cc(NC(=O)CN)c([N+](=O)[O-])cc1Oc1ccccc1
3,267 to 269 °C,O=C1c2cccc3c(Cl)c(Cl)cc(c23)C(=O)N1O
4,185 to 187 °C,COc1cccc(Cn2c(C(=O)O)c(-c3ccc(OCC4CC4)cc3)c3cc(OCc4ccccc4)ccc32)c1
5,162 to 168 °C,Cc1oc(-c2ccc(-c3ccc(-c4nc(CC(=O)OCc5ccccc5)c(C)o4)cc3)cc2)nc1CC(=O)OCc1ccccc1
6,141 to 142 °C,CC1=C(C)C(C)(OC(N)=O)N(c2ccc(Cl)c(Cl)c2)C1=O (centres undefined)
7,117 to 120 °C,CN(C)C(=O)NC1CCCc2sccc21 (centres undefined)
8,212 to 213 °C,FC(F)(F)c1cccc(Oc2cccc(-c3nnc(Nc4ccc(Cl)c(Cl)c4)s3)c2)c1
9,86 to 88 °C,Nc1cc(Br)c(F)c(Cl)c1F
10,117 °C,O=C(Cl)N(OCc1ccccc1)C1c2ccccc2Oc2ccccc21
11,161 to 162 °C,NC1CCc2ccccc2NC1=O (centres undefined)
12,191 to 193 °C,CC1(C)CON(Cc2ccc(NC(=O)C3CC3)cc2Cl)C1=O
13,208 to 209 °C,O=C(O)COc1cc(Cl)ccc1C(=O)NCc1ccc2c(c1)OCO2
14,81 to 82 °C,CC(C)C[C@H](NC(=O)OCc1ccccc1)C(=O)N[C@@H](Cc1ccccc1)C(=O)CN(C)C
15,154 to 156 °C,CCCCCCCCCCCCCCCCNc1ccc(C(=O)NN)cc1
16,172 to 175 °C,CCc1ccc(-n2c(-c3ccccn3)nc(SC)c(C#N)c2=O)cc1
17,170 to 171 °C,CC1(C)CCC(C)(C)c2cc(C(C)(O)COc3ccc(C(=O)O)c(O)c3)ccc21 (centres undefined)
18,> 280 °C,CCn1c(=O)c2[nH]c(/C=C/c3cc(C)c(OC)cc3C)nc2n(CC)c1=O
19,97 to 98 °C,CCOC(=O)c1ccc2c(c1)N(CCN(C)C)C(=O)c1cc(C(C)C)cc(C(C)C)c1O2
20,145 to 146 °C,Cn1ncnc1COc1nc2c(cc1-c1ccoc1)nnn2-c1ccccc1F
21,120 to 121 °C,Cc1ccccc1CNC(=O)c1ccc2cnccc2n1
22,134 to 135 °C,O=C(CCc1cccnc1)NCCCCC1CCN(P(=O)(c2ccccc2)c2ccccc2)CC1

row,melting point,SMILES
1,141 to 142 °C,CCc1noc(-c2c[nH]c(-c3cccc(Oc4ccc(Br)cn4)c3)n2)n1
2,182 to 183 °C,COC(=O)CSCC1Cn2cc(C(=O)NCc3ccc(Cl)cc3)c(=O)c3cc(CN4CCOCC4)cc(c32)O1 (centres undefined)
3,102 to 103 °C,CCCc1c(OCCCCCCc2cccc(OCCCCCO)c2CCC(=O)O)ccc2c1OCCC2=O
4,157 to 158 °C,CN1C(=O)CC2(CC(=O)N(Cc3ccccc3)C2)C1=O (centres undefined)
5,239 °C,CCOC(=O)c1c(N2CCN(C(=O)c3cccs3)CC2)c2cccnc2[nH]c1=O
6,180 to 183 °C,COc1cc(C)nc(NC(=O)NS(=O)(=O)c2cccc3c2OC(C)(C)O3)n1
7,65 to 68 °C,O=S1(=O)N(CCCCBr)c2ccccc2N1c1ccc(Cl)cc1
8,238 to 241 °C,O=c1[nH]c2c(-c3ccccc3F)nnn2c2ccccc12
9,> 280 °C,O=C1c2cc(C(F)(F)F)c(C(F)(F)F)cc2C(=O)c2cc3ccccc3cc21
10,96 °C,CN1C(=O)N(Cc2cc(C(F)(F)F)cc(C(F)(F)F)c2)CC1(CCO)c1ccc(Cl)c(Cl)c1 (centres undefined)
11,200 to 203 °C,COc1ccc(-n2c3ccccc3c3cc(C=C(C#N)c4cc(F)cc(F)c4)ccc32)cc1
12,138 °C,COc1cc(O)c(N2CCN(CCN3CC(C)(C)C3)C2=O)cc1Cl
13,102 to 104 °C,CC(C)(C)OC(=O)N1CCn2c(c(C(N)=O)c(Cl)c2C2CC2)C1
14,122 to 125 °C,Cc1cc(F)ccc1NC(=O)CCC#Cc1cccc(CF)n1
15,129 to 132 °C,O=c1c2c(Cc3ccc(OC(F)(F)F)cc3)n[nH]c2c2cccnc2n1-c1cccc(OC(F)(F)F)c1
16,218 to 219 °C,CC1(NC2=NS(=O)(=O)c3sc(Cl)cc3N2)CCCCC1
17,118 to 119 °C,CCC(O)(CC(N)=O)c1ccc(Br)cc1 (centres undefined)
18,121 to 123 °C,Brc1ccc(-c2ccc3ccccc3c2)cc1
19,179 to 180 °C,Cc1cc([N+](=O)[O-])nc(C)c1C(N)=O
20,241 to 243 °C,CC(=O)Nc1cc(Cn2c(C(=O)c3cc(C)cc(Cl)c3)c(C(C)C)c(=O)[nH]c2=O)ccn1
21,164 to 167 °C,Cn1c(COc2ccc(CC3SC(=O)NC3=O)cc2)nc2ccc(Oc3ccc(NC(=O)NC45CC6CC(CC(C6)C4)C5)cc3)cc21 (centres undefined)
22,204 to 206 °C,COc1ccccc1N1CCN(c2cc3nc(C(=O)O)c(=O)[nH]c3cc2[N+](=O)[O-])CC1

row,melting point,SMILES
1,110 °C,BrCc1nc(-c2ccccc2)nc2ccccc12
2,104 to 105 °C,O=[N+]([O-])c1ccc2c(c1)CNCCS2
3,169 °C,Cc1nnc(NCCC2CCCN2C)c2cc3ccccn3c12 (centres undefined)
4,178 to 179 °C,COc1ccc(S(=O)(=O)Nc2cccnc2Nc2ccc(O)cc2)cc1
5,150 to 151 °C,CC(C)n1cc(-c2c(-c3ccccc3F)nn3ccncc23)ccc1=O
6,110 to 112 °C,COC1CCC(OS(=O)(=O)c2ccc(C)cc2)C(COS(=O)(=O)c2ccc(C)cc2)O1 (centres undefined)
7,160 °C,CC(C)c1nc(C(C)C)c(CCCC(=O)O)c(-c2ccc(F)cc2)c1CO
8,149 to 151 °C,CN(CCOc1ccc(CC(Cl)C(N)=O)cc1)c1nc2ccccc2o1 (centres undefined)
9,130 to 132 °C,CCOC(=O)C(Cc1nc2cc(Cl)c(Cl)cc2nc1CP(=O)(OC)OC)(NC(C)=O)C(=O)OCC
10,218 to 219 °C,COc1cc2c(c3c1OC(C)(C)C3)C(c1ccnc(-n3c(=O)cc(C)c4ccccc43)c1)=NC(C)(C)C2
11,51 to 52 °C,CCCCCCCCCCC/C=C\c1c[nH]c(C(=O)OC)c1
12,218 to 220 °C,CC(C)(CO)Nc1ccc2c(c1)C(=O)c1ccccc1C2=O
13,176 to 177 °C,CC(=O)N(C(=O)OC(C)(C)C)c1ccc(-c2nc3n(Cc4c(F)cccc4F)c(C)c(Cc4ccccc4)c(=O)n3c2C)cc1
14,118 to 120 °C,FC(F)(F)c1ccn(-c2cc(N3CCOCC3)nc3ccccc23)n1
15,208 °C,CC(C)(C#N)c1c(Cl)cc(N)cc1Cl
16,103 °C,O=c1ncc(F)cn1COCc1ccc(Cl)cc1
17,185 to 187 °C,CC(=O)OC(C)c1nccc2[nH]c(=O)ccc12 (centres undefined)
18,103 to 105 °C,COc1cc(Nc2ncc([N+](=O)[O-])c(-c3ccccc3)n2)cc(OC)c1OC
19,168 to 170 °C,CC(C)c1cc2cc(OCC(=O)O)c(Cl)c(Cl)c2s1
20,175 to 177 °C,COc1ccc2c3ccc(OC)cc3n(CCNC(=O)CS(C)(=O)=O)c2c1
21,123 to 126 °C,O=C(O)CC(NS(=O)(=O)c1ccc2ccccc2c1)c1ccccc1 (centres undefined)

row,SMILES,melting point
1,C#CC1(O)CN2CCC1CC2 (centres undefined),199 to 202 °C
2,CN1CCC(c2c[nH]c3ccc(/C=C/C(N)=O)cc23)CC1,82 to 83.5 °C
3,CC(=O)C1C(=O)N(CC2CC2)C(=O)N(c2ccccc2)C1=O (centres undefined),91 to 95 °C
4,CC(C)S(=O)(=O)c1ccc2c(c1)nc(CC(C)(C)C)n2CCN(C)C,116 °C
